Patent publication US9468661B2, “Pyrrolidine derivatives and their use as complement pathway modulators” (priority 2012, dated 2016)

The compounds below were run against human factor D (Homo sapiens (Human), UniProt P00746) (assay: biochemical). Settings: Factor D inhibition data using Method 1; recombinant human factor D 10 nM, substrate Z-Lys-thiobenzyl, fluorescence; read-out: IC50.
human factor D, sequence (P00746 26-253): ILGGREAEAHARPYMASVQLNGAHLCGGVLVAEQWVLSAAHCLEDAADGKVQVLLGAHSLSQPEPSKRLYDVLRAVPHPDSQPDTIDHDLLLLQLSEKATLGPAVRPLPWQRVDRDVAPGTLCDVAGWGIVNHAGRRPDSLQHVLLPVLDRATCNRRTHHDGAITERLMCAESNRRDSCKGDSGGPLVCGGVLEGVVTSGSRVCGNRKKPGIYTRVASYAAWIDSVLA
Format: biochemical
Experimental: Human Complement Factor D Assay: Method 1
Recombinant human factor D (expressed in E. coli and purified using standard methods) at 10 nM concentration is incubated with test compound at various concentrations for 1 hour at room temperature in 0.1 M Hepes buffer, pH 7.5, containing 1 mM MgCl2, 1 M NaCl and 0.05% CHAPS. A synthetic substrate Z-Lys-thiobenzyl and 2,4-dinitrobenzenesulfonyl-fluoresceine are added to final concentrations of 200 μM and 25 μM, respectively. The increase in fluorescence is recorded at excitation of 485 nm and emission at 535 nm in a microplate spectrofluorimeter. IC50 values are calculated from percentage of inhibition of complement factor D-activity as a function of test compound concentration.
For `CC(=O)c1nn(CC(=O)N2[C@@H]3C[C@@H]3C[C@H]2C(=O)NCC2CCCCC2(C)C)c2cnccc12` (single isomer, unassigned; dia 2) [Example 22], the IC50 was 1190 nM.
`CC(=O)c1nn(CC(=O)N2[C@@H]3C[C@@H]3C[C@H]2C(=O)NCC2C(C)(C)C2(C)C)c2ncccc12` [Example 2, (1R,3S,5R)-2-[2-(3-Acetyl-pyrazolo[3,4-b]pyridin-1-yl)-acetyl]-2-aza-bicyclo[3.1.0] hexane-3-carboxylic acid (2,2,3,3-tetramethyl-cyclopropylmethyl)-amide] showed an IC50 of 1850 nM.
Work on `CC(=O)c1nn(CC(=O)N2[C@@H]3C[C@@H]3C[C@H]2C(=O)NC[C@H]2CC2(Cl)Cl)c2ccc(OCc3ncccc3F)cc12` [Example 99, (1R,3S,5R)-2-{2-[3-Acetyl-5-(3-fluoro-pyridin-2-ylmethoxy)-indazol-1-yl]-acetyl}-2-aza-bicyclo[3.1.0]hexane-3-carboxylic acid ((R)-2,2-dichloro-cyclopropylmethyl)-amide] yielded an IC50 of 32 nM.
In the case of `CC(=O)c1nn(CC(=O)N2[C@@H]3C[C@@H]3C[C@H]2C(=O)NC[C@H]2CC2(Cl)Cl)c2ncccc12` [Example 69, (1R,3S,5R)-2-[2-(3-Acetyl-pyrazolo[3,4-b]pyridin-1-yl)-acetyl]-2-aza-bicyclo[3.1.0] hexane-3-carboxylic acid ((R)-2,2-dichloro-cyclopropylmethyl)-amide], the IC50 is reported as 53 nM.
Compound `CC(=O)c1nn(CC(=O)N2[C@@H]3C[C@@H]3C[C@H]2C(=O)NCC2CCCC(C)(C)C2)c2cnccc12` (single isomer, unassigned; dia 1) [Example 17] has an IC50 of 661 nM.
In the case of `NC(=O)c1nn(CC(=O)N2[C@@H]3C[C@@H]3C[C@H]2C(=O)NC[C@H]2CC2(Cl)Cl)c2cc(F)c(F)cc12` [Example 96, 1-(2-{(1R,3S,5R)-3-[((R)-2,2-Dichloro-cyclopropylmethyl)-carbamoyl]-2-aza-bicyclo[3.1.0]hex-2-yl}-2-oxo-ethyl)-5,6-difluoro-1H-indazole-3-carboxylic acid amide], the IC50 is reported as 307 nM.
`CC(=O)c1nn(CC(=O)N2[C@@H]3C[C@@H]3C[C@H]2C(=O)NCC2CCCC(C)C2)c2cnccc12` (single isomer, unassigned; dia 2) [Example 120] was tested, and the IC50 was 70 nM.
`CC(=O)c1nn(CC(=O)N2[C@@H]3C[C@@H]3C[C@H]2C(=O)NC[C@H]2CC2(Cl)Cl)c2ccc(OCc3nccs3)cc12` [Example 106, (1R,3S,5R)-2-{2-[3-Acetyl-5-(thiazol-2-ylmethoxy)-indazol-1-yl]-acetyl}-2-aza-bicyclo[3.1.0]hexane-3-carboxylic acid ((R)-2,2-dichloro-cyclopropylmethyl)-amide] gave an IC50 of 5 nM.
In the case of `CC1CCCC1CNC(=O)[C@@H]1C[C@H]2C[C@H]2N1C(=O)Cn1nc(C(N)=O)c2ccncc21` (single isomer, unassigned; dia 4) [Example 88], the IC50 is reported as 781 nM.
`CC(=O)c1nn(CC(=O)N2[C@@H]3C[C@@H]3C[C@H]2C(=O)NCC2CCCC(C)(C)C2)c2cnccc12` (single isomer, unassigned; dia 2) [Example 18] showed an IC50 of 389 nM.
With `NC(=O)c1nn(CC(=O)N2[C@@H]3C[C@@H]3C[C@H]2C(=O)NC[C@H]2CC2(Cl)Cl)c2ccc(F)cc12` [Example 98, 1-(2-{(1R,3S,5R)-3-[((R)-2,2-Dichloro-cyclopropylmethyl)-carbamoyl]-2-aza-bicyclo[3.1.0]hex-2-yl}-2-oxo-ethyl)-5-fluoro-1H-indazole-3-carboxylic acid amide] the IC50 was 248 nM.
`NC(=O)c1nn(CC(=O)N2[C@@H]3C[C@@H]3C[C@H]2C(=O)NC[C@H]2CC2(Cl)Cl)c2ccc(Cl)cc12` [Example 97, 5-Chloro-1-(2-{(1R,3S,5R)-3-[((R)-2,2-dichloro-cyclopropylmethyl)-carbamoyl]-2-aza-bicyclo[3.1.0]hex-2-yl}-2-oxo-ethyl)-1H-indazole-3-carboxylic acid amide] showed an IC50 of 218 nM.
With `NC(=O)c1nn(CC(=O)N2[C@@H]3C[C@@H]3C[C@H]2C(=O)NC[C@H]2CC2(Cl)Cl)c2ccncc12` [Example 95, 1-(2-{(1R,3S,5R)-3-[((R)-2,2-Dichlorocyclopropylmethyl)-carbamoyl]-2-aza-bicyclo[3.1.0]hex-2-yl}-2-oxo-ethyl)-1H-pyrazolo[4,3-c]pyridine-3-carboxylic acid amide] the IC50 was 482 nM.
`NC(=O)c1nn(CC(=O)N2[C@@H]3C[C@@H]3C[C@H]2C(=O)NC[C@H]2CC2(Cl)Cl)c2ccc(OCc3nccs3)cc12` [Example 40, 1-(2-{(1R,3S,5R)-3-[((R)-2,2-Dichloro-cyclopropylmethyl)-carbamoyl]-2-aza-bicyclo[3.1.0]hex-2-yl}-2-oxo-ethyl)-5-(thiazol-2-ylmethoxy)-1H-indazole-3-carboxylic acid amide] gave an IC50 of 7 nM.
`CC(=O)c1nn(CC(=O)N2[C@@H]3C[C@@H]3C[C@H]2C(=O)N[C@H](C)[C@H]2CC2(Cl)Cl)c2ccc(OCc3ccn(C)n3)cc12` [Example 66, (1R,3S,5R)-2-{2-[3-Acetyl-5-(1-methyl-1H-pyrazol-3-ylmethoxy)-indazol-1-yl]-acetyl}-2-aza-bicyclo[3.1.0]hexane-3-carboxylic acid [(R)-1-((R)-2,2-dichloro-cyclopropyl)-ethyl]-amide] was tested, and the IC50 was 4 nM.
Compound `Cc1cc2c(C(N)=O)nn(CC(=O)N3[C@@H]4C[C@@H]4C[C@H]3C(=O)N[C@H](C)[C@H]3CC3(Cl)Cl)c2c(C)n1` [Example 45, 1-(2-{(1R,3S,5R)-3-[(R)-1-((R)-2,2-Dichloro-cyclopropyl)-ethylcarbamoyl]-2-aza-bicycio[3.1.0]hex-2-yl}-2-oxo-ethyl)-5,7-dimethyl-1H-pyrazolo[3,4-c]pyridine-3-carboxylic acid amide] has an IC50 of 43 nM.
`CO[C@H]1[C@@H](C(=O)N[C@H](C)[C@H]2CC2(Cl)Cl)N(C(=O)Cn2nc(C(N)=O)c3ccccc32)C[C@@H]1F` [Example 59, 1-(2-{(2S,3S,4S)-2-[(R)-1-((R)-2,2-Dichloro-cyclopropyl)-ethylcarbamoyl]-4-fluoro-3-methoxy-pyrrolidin-1-yl}-2-oxo-ethyl)-1H-indazole-3-carboxylic acid amide] showed an IC50 of 14 nM.
For `CC1CCCC(CNC(=O)[C@@H]2C[C@H]3C[C@H]3N2C(=O)Nc2cn(C(N)=O)c3ccccc23)C1` (stereo partly drawn) [Example 29, (1R,3S,5R)-2-Aza-bicyclo [3.1.0]hexane-2,3-dicarboxylic acid 2-[(1-carbamoyl-1H-indol-3-yl)-amide] 3-[(3-methyl-cyclohexylmethyl)-amide]], the IC50 was 46 nM.
Compound `NC(=O)c1nn(CC(=O)N2[C@@H]3C[C@@H]3C[C@H]2C(=O)NC[C@H]2CC2(Cl)Cl)c2cc(Cl)ccc12` [Example 114, 6-Chloro-1-(2-{(1R,3S,5R)-3-[((R)-2,2-dichloro-cyclopropylmethyl)-carbamoyl]-2-aza-bicyclo[3.1.0]hex-2-yl}-2-oxo-ethyl)-1H-indazole-3-carboxylic acid amide] has an IC50 of 40 nM.
`CC(=O)c1nn(CC(=O)N2[C@@H]3C[C@@H]3C[C@H]2C(=O)NCC2CC(C)C2)c2ccc(OCc3ncccn3)cc12` (mixture of isomers) [Example 65, (1R,3S,5R)-2-{2-[3-Acetyl-5-(pyrimidin-2-ylmethoxy)-indazol-1-yl]-acetyl}-2-aza-bicyclo[3.1.0] hexane-3-carboxylic acid (3-methyl-cyclobutylmethyl)-amide (mixture of 4 diastereoisomers)] was tested, and the IC50 was 20 nM.
Work on `NC(=O)c1nn(CC(=O)N2[C@@H]3C[C@@H]3C[C@H]2C(=O)NC[C@H]2CC2(Cl)Cl)c2cnccc12` [Example 72, 1-(2-{(1R,3S,5R)-3-[((R)-2,2-Dichloro-cyclopropylmethyl)-carbamoyl]-2-aza-bicyclo[3.1.0]hex-2-yl}-2-oxo-ethyl)-1H-pyrazolo[3,4-c]pyridine-3-carboxylic acid amide] yielded an IC50 of 36 nM.

Same assay, conditions: IC50, Factor D inhibition data using Method 1; recombinant human factor D 10 nM, substrate Z-Lys-thiobenzyl, fluorescence
`NC(=O)c1nn(CC(=O)N2[C@@H]3C[C@@H]3C[C@H]2C(=O)NC(CO)C2CC2(Cl)Cl)c2ccccc12` (single isomer, unassigned; dia 3) [Example 50] showed an IC50 of 7300 nM.
Compound `CC(=O)c1nn(CC(=O)N2[C@@H]3C[C@@H]3C[C@H]2C(=O)NCC2C(C)C2(Cl)Cl)c2ccc(OCc3ncccn3)cc12` (single isomer, unassigned; dia 1) [Example 75, (1R,3S,5R)-2-{2-[3-Acetyl-5-(pyrimidin-2-ylmethoxy)-indazol-1-yl]-acetyl}-2-aza-bicyclo[3.1.0] hexane-3-carboxylic acid ((1R,3R) or (1S,3S)-2,2-dichloro-3-methyl-cyclopropylmethyl)-amide-Dia 1] has an IC50 of 7 nM.
`CC1CCC(CNC(=O)[C@@H]2C[C@H]3C[C@H]3N2C(=O)Cn2nc(C(N)=O)c3ccccc32)C1` (single isomer, unassigned; dia 2) [Example 90] showed an IC50 of 53 nM.
`CC1CCC(CNC(=O)[C@@H]2C[C@H]3C[C@H]3N2C(=O)Cn2nc(C(N)=O)c3ccccc32)C1` (single isomer, unassigned; dia 1) [Example 89] showed an IC50 of 74 nM.
`CC1C(CNC(=O)[C@@H]2C[C@H]3C[C@H]3N2C(=O)Cn2nc(C(N)=O)c3ccncc32)C1(Cl)Cl` (single isomer, unassigned; dia 2) [Example 80, 1-(2-{(1R,3S,5R)-3-[((1R,3S) or (1S,3R)-2,2-Dichloro-3-methyl-cyclopropylmethyl)-carbamoyl]-2-aza-bicyclo[3.1.0]hex-2-yl}-2-oxo-ethyl)-1H-pyrazolo[3,4-c]pyridine-3-carboxylic acid amide-Dia 2] was tested, and the IC50 was 98 nM.
For `CC(=O)c1nn(CC(=O)N2[C@@H]3C[C@@H]3C[C@H]2C(=O)NC(C)C2CC2(Cl)Cl)c2ccc(OCc3ncccn3)cc12` (single isomer, unassigned; dia 4) [Example 35], the IC50 was 324 nM.
